The nature of data set [1]: Stability in simulated gastric fluid. It counts as in vitro ADME. The settings on record: 2 μM peptidomimetic, simulated gastric fluid pH 1.5, 37° C.; for half-life at 2 μM: read-out: half-life (t1/2) when incubated with simulated gastric fluid. Here is the method:
(§1) Reactions were terminated by the addition of TFA/H2O (15 mL, 10% (v/v)). […] The column was equilibrated with TFA/H20, at a flow rate of 1 mL/min.

The target in a further data set is T1, human glucagon receptor (Homo sapiens, UniProt P47871).
T1 construct: The full-length cDNA was cloned in pcDNA3.1 (Invitrogen); expressed in transfected cells
T1 sequence (P47871 26-477): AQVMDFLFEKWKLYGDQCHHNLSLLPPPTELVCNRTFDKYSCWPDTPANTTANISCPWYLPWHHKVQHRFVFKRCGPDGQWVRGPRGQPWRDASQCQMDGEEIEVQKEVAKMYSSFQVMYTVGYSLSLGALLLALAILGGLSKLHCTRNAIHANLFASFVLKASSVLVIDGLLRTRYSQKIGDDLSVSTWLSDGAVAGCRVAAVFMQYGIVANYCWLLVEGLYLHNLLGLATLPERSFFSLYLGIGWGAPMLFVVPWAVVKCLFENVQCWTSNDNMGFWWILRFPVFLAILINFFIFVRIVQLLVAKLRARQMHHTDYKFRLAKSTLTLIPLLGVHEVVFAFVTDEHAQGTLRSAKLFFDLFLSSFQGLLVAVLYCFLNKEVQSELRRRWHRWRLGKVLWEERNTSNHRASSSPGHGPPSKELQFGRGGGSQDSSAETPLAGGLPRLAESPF
The experiment in a line: In vitro human glucagon antagonist activity (inhibition of cAMP production) in CHO/human glucagon R cells. As to conditions: with saturated concentration of glucagon peptide. It counts as cell-based.

Data set [2] is described as follows: Stability in human plasma. It counts as in vitro ADME. As to conditions: 2 μM peptidomimetic, pooled human plasma, 37° C.; for half-life at 2 μM: pH 7.8, read-out: half-life (t1/2) when incubated with human plasma. Here is the method: as §1
The next data set deals with DPP IV (Homo sapiens, UniProt P27487). The data set is described as follows: Stability against DPP IV enzyme. It counts as in vitro ADME. As to conditions: 37° C.; for % degradation of peptidomimetics in 24 h when incubated with DPP-IV enzyme: 2 μM peptidomimetic; for half-life at 2 μM: DPP IV enzyme, pH 7.8, 2 μM peptidomimetic, read-out: half-life (t1/2) when incubated with DPP-IV enzyme. Here is the method: as §1
Sequence of DPP IV (P27487 whole entry, species assumed): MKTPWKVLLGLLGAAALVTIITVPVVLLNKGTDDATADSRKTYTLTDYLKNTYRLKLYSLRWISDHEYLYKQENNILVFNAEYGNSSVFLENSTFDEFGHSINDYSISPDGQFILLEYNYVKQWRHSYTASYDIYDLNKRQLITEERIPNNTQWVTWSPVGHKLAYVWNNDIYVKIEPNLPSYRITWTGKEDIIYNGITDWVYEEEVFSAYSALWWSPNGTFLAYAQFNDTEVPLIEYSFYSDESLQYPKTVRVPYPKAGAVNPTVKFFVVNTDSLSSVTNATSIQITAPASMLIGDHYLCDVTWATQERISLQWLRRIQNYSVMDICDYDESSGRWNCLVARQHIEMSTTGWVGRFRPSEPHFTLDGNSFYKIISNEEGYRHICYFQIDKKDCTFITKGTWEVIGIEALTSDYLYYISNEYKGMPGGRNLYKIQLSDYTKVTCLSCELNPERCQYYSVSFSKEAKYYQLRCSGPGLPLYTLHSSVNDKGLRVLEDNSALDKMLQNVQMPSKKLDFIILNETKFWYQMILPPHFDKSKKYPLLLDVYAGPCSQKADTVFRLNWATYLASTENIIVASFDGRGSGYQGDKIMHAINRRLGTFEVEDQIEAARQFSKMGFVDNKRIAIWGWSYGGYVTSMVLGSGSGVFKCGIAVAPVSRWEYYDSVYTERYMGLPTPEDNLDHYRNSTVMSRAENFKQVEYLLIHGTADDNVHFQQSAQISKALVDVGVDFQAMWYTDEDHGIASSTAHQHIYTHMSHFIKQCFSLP

Another data set deals with T2, Human GLP-1 receptor (Homo sapiens, UniProt P43220).
T2 construct: The full-length cDNA was cloned in pcDNA3.1(+); expressed in transfected cells
T2 sequence (P43220 24-463): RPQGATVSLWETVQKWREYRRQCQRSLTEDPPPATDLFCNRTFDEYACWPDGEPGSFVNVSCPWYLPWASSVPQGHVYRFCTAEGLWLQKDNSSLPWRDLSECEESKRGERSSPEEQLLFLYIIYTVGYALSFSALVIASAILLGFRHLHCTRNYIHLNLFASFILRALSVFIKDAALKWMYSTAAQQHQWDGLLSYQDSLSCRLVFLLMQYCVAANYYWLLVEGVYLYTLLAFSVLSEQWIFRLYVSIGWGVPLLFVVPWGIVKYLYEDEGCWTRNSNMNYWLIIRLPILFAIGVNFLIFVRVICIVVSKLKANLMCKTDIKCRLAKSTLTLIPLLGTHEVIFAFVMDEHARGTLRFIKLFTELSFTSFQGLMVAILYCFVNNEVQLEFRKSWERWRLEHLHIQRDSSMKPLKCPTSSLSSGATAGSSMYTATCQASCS
The experiment in a line: In vitro Human GLP-1 R agonist activity (cyclic AMP determination) in CHO/human GLP1R cells. It counts as cell-based.

The nature of data set [3]: Stability in liver microsomes. It counts as in vitro ADME. The settings on record: 2 μM peptidomimetic, human liver microsomes, 37° C.; for half-life at 2 μM: pH 7.8, read-out: half-life (t1/2) when incubated with liver microsomes. Here is the method: as §1
(Liver microsomes are a subcellular fraction often used to study metabolism.)

Data set [4] is described as follows: Stability in simulated intestinal fluid. It counts as in vitro ADME. The settings on record: 2 μM peptidomimetic, simulated intestinal fluid pH 7.5, 37° C.; for half-life at 2 μM: read-out: half-life (t1/2) when incubated with simulated intestinal fluid. Here is the method: as §1

SMILES strings stand for the structures. Some results are limits rather than exact numbers.

In the case of `CCc1cc(OC)ccc1-c1ccc(CC(C(=O)N(C)C(CCCc2ccccc2F)C(N)=O)N(C)C(=O)[C@H](CC(=O)O)N(C)C(=O)[C@H](CO)NC(=O)[C@@H](NC(=O)C(C)(Cc2ccccc2F)NC(=O)[C@@H](NC(=O)CNC(=O)C(CCC#N)NC(=O)C(C)(C)NC(=O)[C@@H](N)Cc2c[nH]cn2)[C@H](C)O)[C@H](C)O)cc1` (single isomer, unassigned) [compound 156], the “half-life (t1/2) when incubated with simulated gastric fluid” value in data set [1] is “(8) h”. Also, the “% degradation of peptidomimetics in 24 h when incubated with simulated gastric fluid” value (“% degradation … with simulated gastric fluid” below) in data set [1] was 14%. The “Human Glucagon receptor antagonistic activity shown as inhibition of cAMP production of Glucagon peptide” value is listed as 5 ± 0.01 pmol/ml/μg prt at human glucagon receptor (1 nM test compound); 2 ± 0.17 pmol/ml/μg prt at human glucagon receptor (10 nM test compound); 0 pmol/ml/μg prt at human glucagon receptor (100 nM test compound); 0 pmol/ml/μg prt on human glucagon receptor (1 μM test compound); 0 pmol/ml/μg prt on human glucagon receptor (10 μM test compound). Also, the “% degradation of peptidomimetics in 24 h when incubated with human plasma” value (shortened to “% degradation … with human plasma”) in data set [2] amounted to 71%. Also, the half-life at 2 μM in data set [2] came out at 8 h; at DPP IV, 9 h; in data set [3] it was 1 h. Also, on DPP IV, the “% degradation of peptidomimetics in 24 h when incubated with DPP-IV enzyme” value (from here on “% degradation … with DPP-IV enzyme”) turned out to be 70%. In addition, the “Human GLP-1 R activity (cAMP release), % activity with respect to control” value was 86 ± 0.11% at Human GLP-1 receptor (1 nM test compound); 99 ± 0.09% at Human GLP-1 receptor (10 nM test compound); 99 ± 0.06% on Human GLP-1 receptor (100 nM test compound); 99 ± 0.14% at Human GLP-1 receptor (1 μM test compound); 99 ± 0.19% at Human GLP-1 receptor (10 μM test compound). In addition, the “% degradation of peptidomimetics in 24 h when incubated with liver microsomes” value (from here on “% degradation … with liver microsomes”) in data set [3] is recorded as 78%. The “half-life (t1/2) when incubated with simulated intestinal fluid” value in data set [4] was “(6) h”. In data set [4], the “% degradation of peptidomimetics in 24 h when incubated with simulated intestinal fluid” value (“% degradation … with simulated intestinal fluid” for short) is on record as 40%.

For `CCc1cc(OC)ccc1-c1ccc(CC(CNC(CCCc2ccccc2)C(N)=O)NC[C@H](CC(=O)O)NC(=O)[C@H](CO)NC(=O)[C@@H](NC(=O)C(C)(Cc2ccccc2F)NC(=O)[C@@H](NC(=O)CNC(=O)[C@H](CCC(N)=O)NC(=O)C(C)(C)NC(=O)[C@H](Cc2c[nH]cn2)NC(=O)OC)[C@@H](C)O)[C@@H](C)O)cc1` (single isomer, unassigned) [compound 194], the “% degradation … with simulated gastric fluid” value in data set [1] is given as 43%. Besides, the half-life at 2 μM in data set [1] was 4 h; in data set [2], greater than 24 h; on DPP IV, greater than 24 h; in data set [3], 2 h; in data set [4], greater than 24 h. Also, the “Human Glucagon receptor antagonistic activity shown as inhibition of cAMP production of Glucagon peptide” value at human glucagon receptor (1 nM test compound) came to 18 ± 0.12 pmol/ml/μg prt; at human glucagon receptor (10 nM test compound), 16 ± 0.11 pmol/ml/μg prt; on human glucagon receptor (100 nM test compound) it was 12 ± 0.13 pmol/ml/μg prt; on human glucagon receptor (1 μM test compound), 8 ± 0.12 pmol/ml/μg prt; on human glucagon receptor (10 μM test compound), 6 ± 0.18 pmol/ml/μg prt. Also, the “% degradation … with human plasma” value in data set [2] is reported as 00%. Further, the “% degradation … with DPP-IV enzyme” value on DPP IV is 00%. Besides, the “Human GLP-1 R activity (cAMP release), % activity with respect to control” value at Human GLP-1 receptor (1 nM test compound) amounted to 38 ± 0.11%; at Human GLP-1 receptor (10 nM test compound), 77 ± 0.16%; at Human GLP-1 receptor (100 nM test compound) it was 85 ± 0.11%; at Human GLP-1 receptor (1 μM test compound) it was 94 ± 0.08%; on Human GLP-1 receptor (10 μM test compound), 97 ± 0.05%. Also, the “% degradation … with liver microsomes” value in data set [3] is 84%. Also, the “% degradation … with simulated intestinal fluid” value in data set [4] is 00%.

On to `CCc1cc(OC)ccc1-c1ccc(CC(CNC(CCCc2ccccc2F)C(N)=O)NC[C@H](CC(=O)O)NC(=O)[C@H](CO)NC(=O)[C@@H](NC(=O)C(C)(Cc2ccccc2F)NC(=O)[C@@H](NC(=O)CNC(=O)C(CCC#N)NC(=O)C(C)(C)NC(=O)[C@@H](N)Cc2c[nH]cn2)[C@H](C)O)[C@H](C)O)cc1` (single isomer, unassigned) [compound 204], for which the “% degradation … with simulated gastric fluid” value in data set [1] is 00%. Moreover, the half-life at 2 μM (in data set [1]; in data set [2]; at DPP IV; in data set [4]) was greater than 24 h each time. Besides, the “Human Glucagon receptor antagonistic activity shown as inhibition of cAMP production of Glucagon peptide” value on human glucagon receptor (1 nM test compound) is listed as 6 ± 0.05 pmol/ml/μg prt; at human glucagon receptor (10 nM test compound), 5 ± 0.04 pmol/ml/μg prt; on human glucagon receptor (100 nM test compound) it was 2 ± 0.16 pmol/ml/μg prt; at human glucagon receptor (1 μM test compound) it was 0 pmol/ml/μg prt; on human glucagon receptor (10 μM test compound), 0 pmol/ml/μg prt. Besides, the “% degradation … with human plasma” value in data set [2] worked out at 00%. In addition, the “% degradation … with DPP-IV enzyme” value at DPP IV is given as 00%. Also, the “Human GLP-1 R activity (cAMP release), % activity with respect to control” value at Human GLP-1 receptor (1 nM test compound) is reported as 96 ± 0.02%; at Human GLP-1 receptor (10 nM test compound) it was 99 ± 0.46%; at Human GLP-1 receptor (100 nM test compound) it was 99 ± 0.41%; on Human GLP-1 receptor (1 μM test compound), 99 ± 0.66%; at Human GLP-1 receptor (10 μM test compound) it was 99 ± 0.03%. For the same molecule, in data set [3], the “half-life (t1/2) when incubated with liver microsomes” value was “(5) h”. Moreover, the “% degradation … with liver microsomes” value in data set [3] came out at 32%. Moreover, in data set [4], the “% degradation … with simulated intestinal fluid” value was 00%.

As to `CCc1cc(OC)ccc1-c1ccc(CC(C(=O)N(C)C(CCCc2ccccc2F)C(N)=O)N(C)C(=O)[C@H](CC(=O)O)NC(=O)[C@H](CO)NC(=O)[C@@H](NC(=O)C(C)(Cc2ccccc2F)NC(=O)[C@@H](NC(=O)CNC(=O)C(CCC#N)NC(=O)C(C)(C)NC(=O)[C@@H](N)Cc2c[nH]cn2)[C@H](C)O)[C@H](C)O)cc1` (single isomer, unassigned) [compound 144], the “half-life (t1/2) when incubated with simulated gastric fluid” value in data set [1] is recorded as “(8) h”. Also, the “% degradation … with simulated gastric fluid” value in data set [1] is 14%. Besides, the “Human Glucagon receptor antagonistic activity shown as inhibition of cAMP production of Glucagon peptide” value at human glucagon receptor (1 nM test compound) is given as 5 ± 0.09 pmol/ml/μg prt; on human glucagon receptor (10 nM test compound) it was 3 ± 0.11 pmol/ml/μg prt; at human glucagon receptor (100 nM test compound), 0 pmol/ml/μg prt; at human glucagon receptor (1 μM test compound) it was 0 pmol/ml/μg prt; at human glucagon receptor (10 μM test compound), 0 pmol/ml/μg prt. Further, the “% degradation … with human plasma” value in data set [2] was found to be 78%. The half-life at 2 μM was 8 h in data set [2], 9 h at DPP IV and 1 h in data set [3]. The “% degradation … with DPP-IV enzyme” value on DPP IV worked out at 76%. In addition, the “Human GLP-1 R activity (cAMP release), % activity with respect to control” value on Human GLP-1 receptor (1 nM test compound) is on record as 55 ± 0.16%; on Human GLP-1 receptor (10 nM test compound) it was 89 ± 0.05%; at Human GLP-1 receptor (100 nM test compound), 93 ± 0.09%; on Human GLP-1 receptor (1 μM test compound), 99 ± 0.02%; at Human GLP-1 receptor (10 μM test compound) it was 99 ± 0.04%. For the same molecule, in data set [3], the “% degradation … with liver microsomes” value is recorded as 80%. The “half-life (t1/2) when incubated with simulated intestinal fluid” value in data set [4] was “(6) h”. Also, in data set [4], the “% degradation … with simulated intestinal fluid” value is given as 43%.

The values are drawn from patent US8883963B2 (Cadila Healthcare Limited, priority 2007, dated 2014).
